# Experimental data as given in US11021457B2, “Class of isoindolone-imide ring-1,3-dione-2-ene compounds, composition and use thereof” (WIGEN BIOMEDICINE TECHNOLOGY (SHANGHAI) CO., LTD., priority 2017, dated 2021).
# Like-named read-outs stand apart in the source and are kept apart here.
# Experiments:
# SU-DHL6 = assay: Inhibition of tumor cell proliferation, CellTiter-Glo, SU-DHL6; type: cell-based; conditions: compound concentration 50 μM, 72 hours
# Outline: (§1)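 Compound tested at 50 μM for 72 h, read by CellTiter-Glo. Survival rate = (treated−blank)/(control−blank) RLU ×100, binned as +++ ≤30%, ++ >30-≤60%, + 60-<90%. Seeding 2000-10000 cells/well depending on growth rate.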
# RPMI-8226 = assay: Inhibition of tumor cell proliferation, CellTiter-Glo, RPMI-8226; type: cell-based; conditions: compound concentration 50 μM, 72 hours
# Outline: as §1
# K562 = assay: Inhibition of tumor cell proliferation, CellTiter-Glo, K562; type: cell-based; conditions: compound concentration 50 μM, 72 hours
# Outline: as §1
# A549 = assay: Inhibition of tumor cell proliferation, CellTiter-Glo, A549; type: cell-based; conditions: compound concentration 50 μM, 72 hours
# Outline: as §1
# MDA-MB-453 = assay: Inhibition of tumor cell proliferation, CellTiter-Glo, MDA-MB-453; type: cell-based; conditions: compound concentration 50 μM, 72 hours
# Outline: as §1
# BxPC-3 = assay: Inhibition of tumor cell proliferation, CellTiter-Glo, BxPC-3; type: cell-based; conditions: compound concentration 50 μM, 72 hours
# Outline: as §1
# LC3B = LC3B (Homo sapiens (Human), UniProt Q9GZQ8); assay: Fluorescence polarization experiment targeting LC3B (GST-LC3B with FITC-labeled peptide)
# [1] = GST-LC3B 180 nM, FITC-labeled peptide 18 nM, 25° C.
IC50 (LC3B),Structure (SMILES),Inhibitory activity against proliferation (cell survival rate) SU-DHL6 (SU-DHL6),Inhibitory activity against proliferation (cell survival rate) RPMI-8226 (RPMI-8226),Inhibitory activity against proliferation (cell survival rate) K562 (K562),Inhibitory activity against proliferation (cell survival rate) A549 (A549),Inhibitory activity against proliferation (cell survival rate) MDA-MB-453 (MDA-MB-453),Inhibitory activity against proliferation (cell survival rate) BxPC-3 (BxPC-3),IC50 (LC3B; [1]),"cell survival rate (% of control) at 50 µM (SU-DHL6; Homo sapiens, SU-DHL-6, read-out: Inhibitory activity against proliferation (cell survival rate) SU-DHL6)","cell survival rate (% of control) at 50 µM (RPMI-8226; Homo sapiens, RPMI-8226, read-out: Inhibitory activity against proliferation (cell survival rate) RPMI-8226)","cell survival rate (%) at 50 µM (K562; Homo sapiens, K562, read-out: Inhibitory activity against proliferation (cell survival rate) K562)","cell survival rate (% of control) at 50 µM (A549; Homo sapiens, A549, read-out: Inhibitory activity against proliferation (cell survival rate) A549)","cell survival rate (%) at 50 µM (MDA-MB-453; Homo sapiens, MDA-MB-453, read-out: Inhibitory activity against proliferation (cell survival rate) MDA-MB-453)","cell survival rate (%) at 50 µM (BxPC-3; Homo sapiens, BXPC-3, read-out: Inhibitory activity against proliferation (cell survival rate) BxPC-3)"
,O=C1CCC(N2Cc3c(NC=C4C(=O)CC(c5ccccc5Br)CC4=O)cccc3C2=O)C(=O)N1 (centres unmarked) [Compound 18],++ (30<survival rate (%)≤60),+ (60≤survival rate (%)<90),++ (30<survival rate (%)≤60),+ (60≤survival rate (%)<90),+ (60≤survival rate (%)<90),+ (60≤survival rate (%)<90),< 3 µM,,,,,,
< 3 µM,O=C1CCC(N2Cc3c(NC(=O)CN4CCN(CCNC=C5C(=O)CC(c6ccccc6Br)CC5=O)CC4)cccc3C2=O)C(=O)N1 (centres unmarked) [Compound 157],,,,,,,,≤ 30%,≤ 30%,≤ 30%,≤ 30%,30 to 60%,30 to 60%
,CCC(=O)/C(=C/Nc1cccc2c1CN(C1CCC(=O)NC1=O)C2=O)C(=O)CCc1ccccc1 (centres unmarked) [Compound 128],+++ (survival rate (%)≤30),+++ (survival rate (%)≤30),+++ (survival rate (%)≤30),+++ (survival rate (%)≤30),+++ (survival rate (%)≤30),+ (60≤survival rate (%)<90),100 to 1000 µM,,,,,,
,O=C1CCC(N2C(=O)c3cccc(NC=C4C(=O)CC(c5cccc6[nH]ccc56)CC4=O)c3C2=O)C(=O)N1 (centres unmarked) [Compound 5],+ (60≤survival rate (%)<90),+ (60≤survival rate (%)<90),+ (60≤survival rate (%)<90),+++ (survival rate (%)≤30),+++ (survival rate (%)≤30),+ (60≤survival rate (%)<90),< 3 µM,,,,,,
,COc1ccc(C2CC(=O)C(=CNc3cccc4c3CN(C3CCC(=O)NC3=O)C4=O)C(=O)C2)c(F)c1F (centres unmarked) [Compound 153],+++ (survival rate (%)≤30),++ (30<survival rate (%)≤60),++ (30<survival rate (%)≤60),+++ (survival rate (%)≤30),+++ (survival rate (%)≤30),+ (60≤survival rate (%)<90),< 3 µM,,,,,,
,O=C1CCC(N2Cc3c(NC=C4C(=O)CC(c5ccc(F)cc5Br)CC4=O)cccc3C2=O)C(=O)N1 (centres unmarked) [Compound 17],+ (60≤survival rate (%)<90),+++ (survival rate (%)≤30),+ (60≤survival rate (%)<90),++ (30<survival rate (%)≤60),+ (60≤survival rate (%)<90),+ (60≤survival rate (%)<90),< 3 µM,,,,,,
,O=C1CCC(N2Cc3c(NC(=O)CNC=C4C(=O)CC(c5ccccc5)CC4=O)cccc3C2=O)C(=O)N1 (centres unmarked) [Compound 42],+ (60≤survival rate (%)<90),++ (30<survival rate (%)≤60),++ (30<survival rate (%)≤60),++ (30<survival rate (%)≤60),+ (60≤survival rate (%)<90),+ (60≤survival rate (%)<90),100 to 1000 µM,,,,,,
,O=C1CCC(N2Cc3c(NC=C4C(=O)CC(c5cc(C(F)(F)F)ccc5F)CC4=O)cccc3C2=O)C(=O)N1 (centres unmarked) [Compound 140],+++ (survival rate (%)≤30),+++ (survival rate (%)≤30),+++ (survival rate (%)≤30),+++ (survival rate (%)≤30),++ (30<survival rate (%)≤60),++ (30<survival rate (%)≤60),< 3 µM,,,,,,
,CC(=O)Nc1ccccc1C1CC(=O)C(=CNc2cccc3c2CN(C2CCC(=O)NC2=O)C3=O)C(=O)C1 (centres unmarked) [Compound 156],+++ (survival rate (%)≤30),+++ (survival rate (%)≤30),+++ (survival rate (%)≤30),+ (60≤survival rate (%)<90),+++ (survival rate (%)≤30),+ (60≤survival rate (%)<90),< 3 µM,,,,,,
,O=C1CCC(N2Cc3c(NC=C4C(=O)CC(c5c(Br)ccc(F)c5Cl)CC4=O)cccc3C2=O)C(=O)N1 (centres unmarked) [Compound 11],+ (60≤survival rate (%)<90),+ (60≤survival rate (%)<90),+++ (survival rate (%)≤30),+ (60≤survival rate (%)<90),+ (60≤survival rate (%)<90),+ (60≤survival rate (%)<90),< 3 µM,,,,,,
,O=C1CCC(N2C(=O)c3cccc(NC=C4C(=O)CC(c5c(Br)ccc6[nH]cc(Cl)c56)CC4=O)c3C2=O)C(=O)N1 (centres unmarked) [Compound 13],++ (30<survival rate (%)≤60),+ (60≤survival rate (%)<90),+ (60≤survival rate (%)<90),+++ (survival rate (%)≤30),+++ (survival rate (%)≤30),++ (30<survival rate (%)≤60),< 3 µM,,,,,,
